Results reported in patent US8946234B2, “Halogen-substituted compounds” (Bayer CropScience AG, priority 2008, dated 2015).

Test: logP by HPLC on a C18 phase inversion column, EEC Directive 79/831 Annex V.A8, method b) (HP1100, 5-95% acetonitrile in 1.70 min)
Assay type: physicochemical
Conditions: HPLC method b)
Method: ^b) Note regarding the determination of the log P values and mass detection: The log P values given were determined in accordance with EEC Directive 79/831 Annex V.A8 by HPLC (High Performance Liquid Chromatography) on a phase inversion column (C18). HP1100; 50*4.6 Zorbax Eclipse Plus C18 1.8 micron; eluent A: acetonitrile (0.1% formic acid); eluent B: water (0.08% formic acid); linear gradient from 5% acetonitrile to 95% acetonitrile in 1.70 min, then 95% acetonitrile for a further 1.00 min; oven temperature 55° C.; flow: 2.0 ml/min. The mass detection is carried out via the mass detector Micromass ZQ2000 from Waters.

Structure (SMILES)	logP
Cn1nc(C(F)(F)C(F)(F)F)c(C(F)(F)F)c1C(=O)Nc1ccc(Cl)c(C(=O)NC2CCOCC2)c1 [Ik-285]	3.06^b)
CC(C#N)NC(=O)c1cc(NC(=O)c2c(C(F)(F)F)c(C(F)(F)C(F)(F)F)nn2C)ccc1Cl (centres unmarked) [Ik-292]	3.02^b)
Cn1nc(C(F)(F)C(F)(F)F)c(C(F)(F)F)c1C(=O)Nc1ccc(Cl)c(C(=O)NC2CC2c2ccccc2)c1 (centres unmarked) [Ik-47]	4.00^b)
CC(NC(=O)c1cc(NC(=O)c2c(C(F)(F)F)c(C(F)(F)C(F)(F)F)nn2C)ccc1Cl)c1ccccc1F (centres unmarked) [Ik-284]	4.00^b)
C[C@H](NC(=O)c1cc(NC(=O)c2c(C(F)(F)F)c(C(F)(F)C(F)(F)F)nn2C)ccc1Cl)C(F)(F)F [Ik-294]	3.63^b)
Cc1c(C(F)(F)C(F)(F)F)nn(C)c1C(=O)Nc1ccc(Cl)c(C(=O)NCc2ccccc2)c1 [Ik-271]	3.42^b)
CCC(NC(=O)c1cc(NC(=O)c2c(C(F)(F)F)c(C(F)(F)C(F)(F)F)nn2C)ccc1Cl)C(F)(F)F (centres unmarked) [Ik-297]	3.89^b)
Cn1nc(C(F)(F)C(F)(F)F)c(C(F)(F)F)c1C(=O)Nc1ccc(Cl)c(C(=O)NC(C)(C)C=C(Cl)Cl)c1 [Ik-44]	4.28^b)
Cc1csc(C(NC(=O)c2cc(NC(=O)c3c(C(F)(F)F)c(C(F)(F)C(F)(F)F)nn3C)ccc2Cl)C(F)(F)F)n1 (centres unmarked) [Ik-277]	4.00^b)
Cn1nc(C(F)(F)C(F)(F)F)c(C(F)(F)F)c1C(=O)Nc1ccc(Cl)c(C(=O)NC2(C(F)(F)F)CC2)c1 [Ik-296]	3.58^b)
Cn1nc(C(F)(F)C(F)(F)F)c(C(F)(F)F)c1C(=O)Nc1ccc(Cl)c(C(=O)NC2CC=CC2)c1 [Ik-287]	3.63^b)
CC(NC(=O)c1cc(NC(=O)c2c(C(F)(F)F)c(C(F)(F)C(F)(F)F)nn2C)ccc1Cl)c1cccc(F)c1 (centres unmarked) [Ik-303]	3.89^b)
Cn1nc(C(F)(F)C(F)(F)F)c(C(F)(F)F)c1C(=O)Nc1ccc(Cl)c(C(=O)NCc2cc(F)ccc2F)c1 [Ik-54]	3.84^b)
Cn1nc(C(F)(F)C(F)(F)F)c(C(F)(F)F)c1C(=O)Nc1ccc(Cl)c(C(=O)NC2C=CS(=O)(=O)C2)c1 (centres unmarked) [Ik-278]	2.80^b)
C=C(C)CNC(=O)c1cc(NC(=O)c2c(C(F)(F)F)c(C(F)(F)C(F)(F)F)nn2C)ccc1Cl [Ik-50]	3.53^b)
Cn1nc(C(F)(F)C(F)(F)F)c(C(F)(F)F)c1C(=O)Nc1ccc(Cl)c(C(=O)NC(C)(C)CC(F)(F)F)c1 [Ik-300]	4.00^b)
Cn1nc(C(F)(F)C(F)(F)F)c(C(F)(F)F)c1C(=O)Nc1ccc(Cl)c(C(=O)NCCOCC(F)(F)F)c1 [Ik-281]	3.53^b)
CC(C)[C@H](NC(=O)c1cc(NC(=O)c2c(C(F)(F)F)c(C(F)(F)C(F)(F)F)nn2C)ccc1Cl)C(F)(F)F [Ik-310]	3.89^b)
Cn1nc(C(F)(F)C(F)(F)F)c(C(F)(F)F)c1C(=O)Nc1ccc(Cl)c(C(=O)NCc2ccc(F)cc2F)c1 [Ik-308]	3.94^b)
Cn1nc(C(F)(F)C(F)(F)F)c(C(F)(F)F)c1C(=O)Nc1ccc(Cl)c(C(=O)NC(C)(C)CS(C)(=O)=O)c1 [Ik-301]	3.02^b)
CC(O)CNC(=O)c1cc(NC(=O)c2c(C(F)(F)F)c(C(F)(F)C(F)(F)F)nn2C)ccc1Cl (centres unmarked) [Ik-33]	2.65^b)
Cn1nc(C(F)(F)C(F)(F)F)c(C(F)(F)F)c1C(=O)Nc1ccc(Cl)c(C(=O)NC2CC2(F)F)c1 (centres unmarked) [Ik-6]	3.33^b)

Structure (SMILES)	logP
Cn1nc(C(F)(F)C(F)(F)F)c(C(F)(F)F)c1C(=O)Nc1ccc(Cl)c(C(=O)NCC(F)(F)C(F)(F)F)c1 [Ik-302]	3.78^b)
CSCC(C)(C)NC(=O)c1cc(NC(=O)c2c(C(F)(F)F)c(C(F)(F)C(F)(F)F)nn2C)ccc1Cl [Ik-289]	4.05^b)
CC(C)N(C)C(=O)c1cc(NC(=O)c2c(C(F)(F)F)c(C(F)(F)C(F)(F)F)nn2C)ccc1Cl [Ik-35]	3.73^b)
CCC1CC1NC(=O)c1cc(NC(=O)c2c(C(F)(F)F)c(C(F)(F)C(F)(F)F)nn2C)ccc1Cl (centres unmarked) [Ik-286]	3.84^b)
Cn1nc(C(F)(F)C(F)(F)F)c(C(F)(F)F)c1C(=O)Nc1ccc(Cl)c(C(=O)NCc2ccc(F)c(F)c2)c1 [Ik-309]	3.94^b)
Cn1nc(C(F)(F)C(F)(F)F)c(C(F)(F)F)c1C(=O)Nc1ccc(Cl)c(C(=O)NCCc2ccc(Cl)cc2)c1 [Ik-40]	4.23^b)
CC(NC(=O)c1cc(NC(=O)c2c(C(F)(F)F)c(C(F)(F)C(F)(F)F)nn2C)ccc1Cl)C1(Cl)CC1 (centres unmarked) [Ik-288]	4.05^b)
Cn1cc(C(F)(F)F)nc1C(NC(=O)c1cc(NC(=O)c2c(C(F)(F)F)c(C(F)(F)C(F)(F)F)nn2C)ccc1Cl)C(F)(F)F (centres unmarked) [Ik-276]	4.00^b)
C/C(Cl)=C/CNC(=O)c1cc(NC(=O)c2c(C(F)(F)F)c(C(F)(F)C(F)(F)F)nn2C)ccc1Cl [Ik-295]	3.73^b)
Cn1nc(C(F)(F)C(F)(F)F)c(C(F)(F)F)c1C(=O)Nc1ccc(Cl)c(C(=O)NCC(C)(C)CF)c1 [Ik-42]	3.68^b)
Cc1ccc(CNC(=O)c2cc(NC(=O)c3c(C(F)(F)F)c(C(F)(F)C(F)(F)F)nn3C)ccc2Cl)cc1 [Ik-306]	3.94^b)
CC(CC(F)(F)F)NC(=O)c1cc(NC(=O)c2c(C(F)(F)F)c(C(F)(F)C(F)(F)F)nn2C)ccc1Cl (centres unmarked) [Ik-299]	3.63^b)
Cc1ccccc1CNC(=O)c1cc(NC(=O)c2c(C(F)(F)F)c(C(F)(F)C(F)(F)F)nn2C)ccc1Cl [Ik-305]	3.89^b)
Cn1nc(C(F)(F)C(F)(F)F)c(C(F)(F)F)c1C(=O)Nc1ccc(Cl)c(C(=O)NCc2ccon2)c1 [Ik-43]	3.02^b)
COC(=O)CNC(=O)c1cc(NC(=O)c2c(C(F)(F)F)c(C(F)(F)C(F)(F)F)nn2C)ccc1Cl [Ik-34]	3.04^b)
CCOCCNC(=O)c1cc(NC(=O)c2c(C(F)(F)F)c(C(F)(F)C(F)(F)F)nn2C)ccc1Cl [Ik-53]	3.28^b)
Cn1nc(C(F)(F)C(F)(F)F)c(C(F)(F)F)c1C(=O)Nc1ccc(Cl)c(C(=O)NCc2ccc(F)cc2)c1 [Ik-312]	3.73^b)
Cn1nc(C(F)(F)C(F)(F)F)c(C(F)(F)F)c1C(=O)Nc1ccc(Cl)c(C(=O)NCc2cccc(F)c2)c1 [Ik-49]	3.78^b)
CC(NC(=O)c1cc(NC(=O)c2c(C(F)(F)F)c(C(F)(F)C(F)(F)F)nn2C)ccc1Cl)c1ccccc1 (centres unmarked) [Ik-38]	3.89^b)
Cn1nc(C(F)(F)C(F)(F)F)c(C(F)(F)F)c1C(=O)Nc1ccc(Cl)c(C(=O)NC(C2CC2)C2CC2)c1 [Ik-61]	4.00^b)
CCc1c(C(F)(F)C(F)(F)F)nn(C)c1C(=O)Nc1ccc(Cl)c(C(=O)NCc2ccccc2)c1 [Ik-272]	3.68^b)
C[C@@H](NC(=O)c1cc(NC(=O)c2c(C(F)(F)F)c(C(F)(F)C(F)(F)F)nn2C)ccc1Cl)C(F)(F)F [Ik-307]	3.78^b)

Structure (SMILES)	logP
Cn1nc(C(F)(F)C(F)(F)F)c(C(F)(F)F)c1C(=O)Nc1ccc(Cl)c(C(=O)NCc2ncn[nH]2)c1 [Ik-29]	2.31^b)
Cn1nc(C(F)(F)C(F)(F)F)c(C(F)(F)F)c1C(=O)Nc1ccc(Cl)c(C(=O)NCC2CC2(C)C)c1 (centres unmarked) [Ik-46]	4.11^b)
Cn1nc(C(F)(F)C(F)(F)F)c(C(F)(F)F)c1C(=O)Nc1ccc(Cl)c(C(=O)NCCC(F)(F)F)c1 [Ik-291]	3.53^b)
Cn1nc(C(F)(F)C(F)(F)F)c(C(F)(F)F)c1C(=O)Nc1ccc(Cl)c(C(=O)NCc2ccc(Cl)cc2)c1 [Ik-283]	4.05^b)
CC(CF)NC(=O)c1cc(NC(=O)c2c(C(F)(F)F)c(C(F)(F)C(F)(F)F)nn2C)ccc1Cl (centres unmarked) [Ik-290]	3.28^b)
Cc1cccc(CNC(=O)c2cc(NC(=O)c3c(C(F)(F)F)c(C(F)(F)C(F)(F)F)nn3C)ccc2Cl)c1 [Ik-304]	3.94^b)
C[C@H]1C[C@H]1NC(=O)c1cc(NC(=O)c2c(C(F)(F)F)c(C(F)(F)C(F)(F)F)nn2C)ccc1Cl [Ik-279]	3.37^b)
C#CC(C)NC(=O)c1cc(NC(=O)c2c(C(F)(F)F)c(C(F)(F)C(F)(F)F)nn2C)ccc1Cl (centres unmarked) [Ik-293]	3.28^b)
Cn1nc(C(F)(F)C(F)(F)F)c(C(F)(F)F)c1C(=O)Nc1ccc(Cl)c(C(=O)NCc2ccccc2F)c1 [Ik-52]	3.73^b)
Cn1nc(C(F)(F)C(F)(F)F)c(C(F)(F)F)c1C(=O)Nc1ccc(Cl)c(C(=O)NCc2ccncc2)c1 [Ik-313]	1.93^b)
Cn1nc(C(F)(F)C(F)(F)F)c(C(F)(F)F)c1C(=O)Nc1ccc(Cl)c(C(=O)NC(C)(C)C#N)c1 [Ik-274]	3.37^b)
Cn1nc(C(F)(F)C(F)(F)F)c(C(F)(F)F)c1C(=O)Nc1ccc(Cl)c(C(=O)NC2CC2F)c1 (centres unmarked) [Ik-311]	3.28^b)
CCCNC(=O)c1cc(NC(=O)c2c(C(F)(F)F)c(C(F)(F)C(F)(F)F)nn2C)ccc1Cl [Ik-30]	3.23^b)
Cn1nc(C(F)(F)C(F)(F)F)c(C(F)(F)F)c1C(=O)Nc1ccc(Cl)c(C(=O)NCc2nc(C(F)(F)F)cs2)c1 [Ik-273]	3.75^b)
Cn1nc(C(F)(F)C(F)(F)F)c(C(F)(F)F)c1C(=O)Nc1ccc(Cl)c(C(=O)NC2CCCC2)c1 [Ik-39]	3.78^b)
Cn1nc(C(F)(F)C(F)(F)F)c(C(F)(F)F)c1C(=O)Nc1ccc(Cl)c(C(=O)NCC#N)c1 [Ik-48]	2.93^b)
CCCC(NC(=O)c1cc(NC(=O)c2c(C(F)(F)F)c(C(F)(F)C(F)(F)F)nn2C)ccc1Cl)C(F)(F)F (centres unmarked) [Ik-298]	4.11^b)
CN(C(=O)c1cc(NC(=O)c2c(C(F)(F)F)c(C(F)(F)C(F)(F)F)nn2C)ccc1Cl)C1CC1 [Ik-31]	3.51^b)
COCC(C)(C#N)NC(=O)c1cc(NC(=O)c2c(C(F)(F)F)c(C(F)(F)C(F)(F)F)nn2C)ccc1Cl (centres unmarked) [Ik-275]	3.37^b)
Cn1nc(C(F)(F)C(F)(F)F)c(C(F)(F)F)c1C(=O)Nc1ccc(Cl)c(C(=O)NCC2(C)COC2)c1 [Ik-45]	2.98^b)
Cn1nc(C(F)(F)C(F)(F)F)c(C(F)(F)F)c1C(=O)Nc1ccc(Cl)c(C(=O)NCc2c(F)cccc2F)c1 [Ik-37]	3.73^b)
